According to patent US5906820A, “Epidermal growth factor receptor targeted molecules for treatment of inflammatory arthritis” (priority 1997, dated 1999):

Tested on: A431 cells
Experiment: Protein synthesis ([3H]leucine incorporation) assay: inhibition of DAB389 EGF cytotoxicity by chloroquine
Conditions: for % of control Protein Synthesis, + Chloroquine: relative to chloroquine treatment alone

CCN(CC)CCCC(C)Nc1ccnc2cc(Cl)ccc12 (stereo not shown) [Chloroquine, chloroquine]
% of control Protein Synthesis, + Chloroquine (A431 cells, chloroquine 10 μM with DAB389 EGF 1 pm, 20 hr): 100% | % of control Protein Synthesis, + Chloroquine (A431 cells, chloroquine 10 μM with DAB389 EGF 10 pm, 20 hr): 61% | blocking of the cytotoxicity of DAB389 EGF (A431 cells, chloroquine 10 μM, 20 hr): completely blocked | inhibition at 10 µM (Homo sapiens, A-431, 20 h, read-out: reduction of protein synthesis by chloroquine treatment alone): 27%
